Results reported in patent publication US20030049698A1, “Diagnosis and treatment of gastrointestinal disease” (priority 2002, published 2003).

What was measured:
[1] = target: T1, CCK-B/gastrin receptor (Rattus norvegicus, UniProt P30553); settings: reportedly; cited from earlier work
T1 sequence (P30553 1-452): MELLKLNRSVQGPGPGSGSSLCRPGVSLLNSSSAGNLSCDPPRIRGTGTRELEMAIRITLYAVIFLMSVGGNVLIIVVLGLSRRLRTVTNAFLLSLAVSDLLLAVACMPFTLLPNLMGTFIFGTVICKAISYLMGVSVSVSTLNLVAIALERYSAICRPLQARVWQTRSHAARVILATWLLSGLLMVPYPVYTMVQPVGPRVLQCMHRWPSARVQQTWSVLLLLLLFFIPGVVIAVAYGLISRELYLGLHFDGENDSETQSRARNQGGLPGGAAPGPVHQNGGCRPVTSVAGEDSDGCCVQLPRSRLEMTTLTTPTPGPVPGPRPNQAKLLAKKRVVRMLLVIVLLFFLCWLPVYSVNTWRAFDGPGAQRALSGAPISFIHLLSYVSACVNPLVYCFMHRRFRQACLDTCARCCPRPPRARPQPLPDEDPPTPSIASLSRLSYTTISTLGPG

[2] = tested on: gastrin deficient mice; assay: Gastric fundic mucosa proliferation by BrdU incorporation; assay type: in vivo; settings: infusion 10 nmol/kg/hr; G-17 effect at one day; versus saline or G-17 alone
Method: (§1) The mice were fasted 24 hours prior to sacrifice.
Immunohistochemical detection of BrdU incorporation was performed using the avidin-biotin monoclonal antibody technique as previously described (51). Ten well oriented oxyntic glands or colonic crypts were counted per slide. Of the ten colonic crypts, 4 were obtained from the rectum, 3 from the descending colon, and 3 from the ascending colon. The BrdU labeling index was calculated by counting the number of BrdU-positive cells per gland/crypt and expressing the result as a percentage of the total number of cells per gland/crypt.

[3] = tested on: H+/K+-ATPase; assay: H+/K+-ATPase expression by immunohistochemical analysis; assay type: in vivo, mice; settings: compared to infusion of saline alone
Method: as §1
(§2) At the time of sacrifice, the stomach was divided into thirds longitudinally. One section was fixed in Carnoy's fixative overnight, and then embedded in paraffin. Routine H&E staining was performed. Parietal cells were stained using an antibody to the β subunit of H+/K+-ATPase MA3-923 (Affinity Bioreagents, Golden, Colo.) at a final dilution of 1:100, as previously described (62). Ten well oriented fundic glands were examined for parietal cell number, with the result expressed as number of parietal cells per gland (51).

[4] = tested on: gastrin deficient mice; assay: Gastric acid secretion, pyloric ligation, after infusion in gastrin deficient mice; assay type: in vivo; settings: 10 nmol/kg/hr, 4 hours pyloric ligation, saline 5.4±2.0 nEq
Method: Animals were operated and sacrificed under anesthesia with Metofane.
as §1
After food deprivation for 24 hours, the mice were anesthetized with avertin, the abdominal cavity was incised, and each stomach was rinsed with 1 ml saline through a canula placed in the pylorus. The pylorus was then ligated and the gastric juice was collected 4 hours later (61). The acidity of the gastric contents was measured by titration with 0.02 N NaOH and expressed as H^+ nEq.

[5] = tested on: gastrin deficient mice; assay: Parietal cell and ECL cell counts by immunohistochemistry; assay type: in vivo
Method: as §1, §2
Small tissue specimens (2×4 mm) were taken from the greater curvature of the oxyntic mucosa. They were fixed either in 4% 1-Ethyl-3(3-dimethylaminopropyl)-carbodiimide hydrochloride (Sigma, St. Louis, Mo.) for histamine staining, or in 4% paraformaldehyde for VMAT-2 staining, for 8-12 h at 4° C., then rinsed with 20% sucrose in 0.1 M phosphate-buffered saline (pH 7.4). Fresh frozen tissue sections were cut in a cryostat (Bright, Huntington, England) at 10 μm thickness. The sections were thawed onto gelatin-coated glass slides. After washing twice for 10 min with phosphate-buffered saline (pH 7.4), containing 0.25% Triton X-100 (PBS-T), the sections were incubated with either histamine antibody 8431 rabbit (Eurodiagnostic, Mahnö, Sweden) at a final dilution of 1:200 or VMAT-2 antibody B-GP 280-1 (Alpha Diagnostic Int., San Antonio, Tex.) at a dilution of 1:2000 overnight at 4° C. After washing twice with PBS-T (10 min each time), the sections were incubated for 1 h at room temperature with FITC-conjugated goat anti-rabbit IgG (Dako, Glostrup, Denmark) for histamine at a 1:40 dilution or donkey anti-guinea pig IgG (Jacksson InmunoResearch, Göteborg, Sweden) for VMAT-2 at a 1:100 dilution. […] The number of immunostained cells were counted and exressed as number per gland of mucosa.
Parietal and ECL cells were stained immunohistochemically as above. At least ten well oriented glands were then assessed for the number of positively stained cells per gland.

[6] = tested on: gastrin deficient mice; assay: Electron microscopy of parietal cells (activation, vacuolar canaliculi, lipofuscin bodies); assay type: in vivo
Method: as §1
Small tissue specimens (<1 mm^3) were taken from the oxyntic gland area and immediately immersed in a mixture of […] 1% glutaraldehyde, 3% formaldehyde, 0.075M sodium phoshpate buffer, pH 7.2, for 6 hours. The specimens were post-fixed in 1% osmium tetroxide for 1 hour, dehydrated in graded acetone solutions and embedded in Epon 812. Ultrathin sections (60-80 nm) were cut on a LKB MK III Ultratome, contrasted with uranyl acetate and lead citrate and examined in a Philips CM10 (Philips,) transmission electron microscope (63). Parietal cells were identified by the presence of secretory canuliculi and/or tubulovesicles, and ECL cells were identified by the presence of characteristic granules and vesicles in the cytoplasm. Point counting methods were used to analyze the voulume density of the various organelles as previously described (64,65). The cells were photographed (nucleated profiles only) at 6,000× magnification; the prints were then enlarged to 20,000× for planimetric analysis. Activated parietal cells were defined as cells having secretory canuliculi in their cytoplasm. The percentage of activated parietal cells was determined by analyzing the electron micrographs of 100 parietal cells per group. Vacuolar canaliculi were defined as canuliculi containing lysosomal bodies and/or vacuoles in their lumen. Lipofuscin bodies were identified by their high electron density (osmiophilia) in the cytoplasm.

Question: Which “potency relative to YF476” value [1] does the source give for `Cc1cccc(NC(=O)N[C@@H]2N=C(c3ccccc3)c3ccccc3N(CC(=O)c3ccccc3C)C2=O)c1` [YM022] here?
Answer: about 5 times

Question: Which “proliferation rate of the gastric fundic mucosa (BrdU incorporation)” value [2] does the source give for gastrin-17 [G-17] here?
Answer: significantly increased proliferation rate

Question: And the “effect on H+/K+-ATPase expression (intensity of immunostaining)” value [3]?
Answer: no effect on H+/K+-ATPase expression

Question: And the acid output ([4]; after 14 days of infusion)?
Answer: 12.0±2.2 nEq

Question: And the acid output ([4]; after one day of infusion)?
Answer: 21.8±8.8 nEq

Question: What about the acid output ([4]; after six days of infusion) of the same compound?
Answer: 37.4±9.4 nEq

Question: And the “effect on ECL cell number (histamine or VMAT-2 staining)” value ([5]; any time point examined)?
Answer: neither G-17, G17-Gly, or the combination influenced ECL cell number

Question: What about the “increase in the number of parietal cells compared to saline” value ([5]; by day 14 of infusion) of the same compound?
Answer: 65%

Question: And the “effect on parietal cell number (in words)” value ([5]; versus saline, or combination versus G-17 alone)?
Answer: significant increase in parietal cell number

Question: And the “lipofuscin bodies, percentage of cell volume” value ([6]; 14 day infusion, saline 0.26±0.10%)?
Answer: 1.88±0.27%

Question: And the “vacuolar canaliculi, percentage of cell volume” value ([6]; 14 day infusion, saline 0.38±0.38%)?
Answer: 7.50±2.40%

Question: And the activated parietal cells ([6]; after 14 days of infusion, saline 27%)?
Answer: 27%
